This assay has as its system OF1 mice. Put plainly: Maximal electroshock test (MES Test). It counts as in vivo. To be noted: Mus musculus, p.o., read-out: %-Protection. An outline of the steps:
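Readout: fraction of five OF1 mice protected, meaning seizure duration 3 s or less, after a 50 Hz, 18 mA, 0.2 s temporal-electrode shock. Dosing was oral, usually 50 mg/kg, one hour beforehand; ED50 values were derived and post-shock blood taken for exposure.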
For orientation: Protection in the maximal electroshock model is a classic sign of anticonvulsant action.

Setting [1] is: po, 50 mg/kg, pre-treatment time −1 h.
The mark [2] stands for this setting: dose of up to 50 mg/kg, 1 hour prior to induction of convulsions.

Read-outs that look alike come from different tables or passages of the source.

As for `CCC(OC)c1cc2c(=O)n(N(C(=O)OC(C)C)S(C)(=O)=O)c(=O)[nH]c2cc1C(F)(F)F` (centres unmarked) [Example 11.14, Methanesulfonyl-[6-(1-methoxy-propyl)-2,4-dioxo-7-trifluoromethyl-1,4-dihydro-2H-quinazolin-3-yl]-carbamic acid isopropyl ester], the responders at 50 mg/kg under setting [1] worked out at 60%.

For the compound `CCCCC(=O)N(n1c(=O)[nH]c2cc(C(F)(F)F)c(C(CC)OC)cc2c1=O)S(C)(=O)=O` (centres unmarked) [Example 11.15, N-[6-(1-methoxy-propyl)-2,4-dioxo-7-trifluoromethyl-1,4-dihydro-2H-quinazolin-3-yl]-N-pentanoyl-methanesulfonamide], the responders at 50 mg/kg under setting [1] came out at 100%.

Take `CCCCCC(=O)N(n1c(=O)[nH]c2cc(C(F)(F)F)c(C(O)CC)cc2c1=O)S(C)(=O)=O` (centres unmarked) [Example 12.01, N-Hexanoyl-N-[6-(1-hydroxy-propyl)-2,4-dioxo-7-trifluoromethyl-1,4-dihydro-2H-quinazolin-3-yl]-methanesulfonamide]: under setting [1], the responders at 50 mg/kg was determined as 40%.

As for `CCC(O)c1cc2c(=O)n(N(C(=O)OCCOC)S(C)(=O)=O)c(=O)[nH]c2cc1C(F)(F)F` (centres unmarked) [Example 12.02, Methanesulfonyl-[6-(1-hydroxy-propyl)-2,4-dioxo-7-trifluoromethyl-1,4-dihydro-2H-quinazolin-3-yl]-carbamic acid 2-methoxy-ethyl ester], under setting [1], the responders at 50 mg/kg was 20%.

As for `CCCC(=O)N(n1c(=O)[nH]c2cc(C(F)(F)F)c(C(O)CC)cc2c1=O)S(C)(=O)=O` (centres unmarked) [Example 12.03, N-Butyryl-N-[6-(1-hydroxy-propyl)-2,4-dioxo-7-trifluoromethyl-1,4-dihydro-2H-quinazolin-3-yl]-methanesulfonamide], the responders at 50 mg/kg under setting [1] is 40%.

`CCC(O)c1cc2c(=O)n(N(C(=O)C(C)C)S(C)(=O)=O)c(=O)[nH]c2cc1C(F)(F)F` (centres unmarked) [Example 12.04, N-[6-(1-Hydroxy-propyl)-2,4-dioxo-7-trifluoromethyl-1,4-dihydro-2H-quinazolin-3-yl]-N-isobutyryl-methanesulfonamide]: the responders at 50 mg/kg under setting [1] worked out at 40%.

Consider `CCCCC(=O)N(n1c(=O)[nH]c2cc(C(F)(F)F)c(C(O)CC)cc2c1=O)S(C)(=O)=O` (centres unmarked) [Example 12.05, N-[6-(1-Hydroxy-propyl)-2,4-dioxo-7-trifluoromethyl-1,4-dihydro-2H-quinazolin-3-yl]-N-pentanoyl-methanesulfonamide], for which the responders at 50 mg/kg under setting [1] is 40%.

Take `CCc1cc2[nH]c(=O)n(N(C(=O)OCC(C)C)S(C)(=O)=O)c(=O)c2cc1-c1ccnn1CC` [Example 13.01, Methanesulfonyl-[7-ethyl-6-(2-ethyl-2H-pyrazol-3-yl)-2,4-dioxo-1,4-dihydro-2H-quinazolin-3-yl]carbamic acid isobutyl ester]: the responders at 50 mg/kg under setting [1] amounted to 20%.

On to `CCCCCC(=O)N(n1c(=O)[nH]c2cc(CC)c(-c3ccnn3CC)cc2c1=O)S(C)(=O)=O` [Example 13.02, N-[7-Ethyl-6-(2-ethyl-2H-pyrazol-3-yl)-2,4-dioxo-1,4-dihydro-2H-quinazolin-3-yl]-N-hexanoyl-methanesulfonamide], for which the responders at 50 mg/kg under setting [1] turned out to be 20%.

Consider `CCC(=O)N(n1c(=O)[nH]c2cc(CC)c(-c3ccnn3CC)cc2c1=O)S(C)(=O)=O` [Example 13.03, N-[7-Ethyl-6-(2-ethyl-2H-pyrazol-3-yl)-2,4-dioxo-1,4-dihydro-2H-quinazolin-3-yl]-N-propionyl-methanesulfonamide], for which, under setting [1], the responders at 50 mg/kg worked out at 20%.

For the compound `CCn1nccc1-c1cc2c(=O)n(NS(C)(=O)=O)c(=O)[nH]c2cc1C(F)F` [Example 14.0, N-[7-Difluoromethyl-6-(2-ethyl-2H-pyrazol-3-yl)-2,4-dioxo-1,4-dihydro-2H-quinazolin-3-yl]-methanesulfonamide], the responders at 50 mg/kg under setting [1] came out at 0%.

Turning to `CCn1nccc1-c1cc2c(=O)n(N(C(=O)COC(C)=O)S(C)(=O)=O)c(=O)[nH]c2cc1C(F)F` [Example 14.01, Acetic acid 2-{[7-difluoromethyl-6-(2-ethyl-2H-pyrazol-3-yl)-2,4-dioxo-1,4-dihydro-2H-quinazolin-3-yl]-methanesulfonyl-amino}-2-oxo-ethyl ester], the responders at 50 mg/kg under setting [1] is 20%.

With `CCn1nccc1-c1cc2c(=O)n(NS(C)(=O)=O)c(=O)[nH]c2cc1C(F)(F)F` [Example 15.0, N-[6-(2-Ethyl-2H-pyrazol-3-yl)-2,4-dioxo-7-trifluoromethyl-1,4-dihydro-2H-quinazolin-3-yl]-methanesulfonamide], under setting [1], the responders at 50 mg/kg stood at 0%.

Turning to `CCn1nccc1-c1cc2c(=O)n(N(C(=O)OC)S(C)(=O)=O)c(=O)[nH]c2cc1C(F)(F)F` [Example 15.01, [6-(2-Ethyl-2H-pyrazol-3-yl)-2,4-dioxo-7-trifluoromethyl-1,4-dihydro-2H-quinazolin-3-yl]-methanesulfonyl-carbamic acid methyl ester], the responders at 50 mg/kg under setting [1] was determined as 40%.

Turning to `CCC(=O)N(n1c(=O)[nH]c2cc(C(F)(F)F)c(-c3ccnn3CC)cc2c1=O)S(C)(=O)=O` [Example 15.02, N-[6-(2-Ethyl-2H-pyrazol-3-yl)-2,4-dioxo-7-trifluoromethyl-1,4-dihydro-2H-quinazolin-3-yl]-N-propionyl-methanesulfonamide], under setting [1], the responders at 50 mg/kg is 20%.

As to `CCCCOC(=O)N(n1c(=O)[nH]c2cc(C(F)(F)F)c(-c3ccnn3CC)cc2c1=O)S(C)(=O)=O` [Example 15.03, [6-(2-Ethyl-2H-pyrazol-3-yl)-2,4-dioxo-7-trifluoromethyl-1,4-dihydro-2H-quinazolin-3-yl]-methanesulfonyl-carbamic acid butyl ester], under setting [1], the responders at 50 mg/kg stood at 20%.

On to `CCn1nccc1-c1cc2c(=O)n(N(C(=O)C(C)(C)C)S(C)(=O)=O)c(=O)[nH]c2cc1C(F)(F)F` [Example 15.04, N-(2,2-Dimethyl-propionyl)-N-[6-(2-ethyl-2H-pyrazol-3-yl)-2,4-dioxo-7-trifluoromethyl-1,4-dihydro-2H-quinazolin-3-yl]-methanesulfonamide], for which the responders at 50 mg/kg under setting [1] was determined as 20%.

For the compound `CCc1cc2[nH]c(=O)n(N(C(=O)OCCOC)S(C)(=O)=O)c(=O)c2cc1-c1ccnn1CC` [Methanesulfonyl-[7-ethyl-6-(2-ethyl-2H-pyrazol-3-yl)-2,4-dioxo-1,4-dihydro-2H-quinazolin-3-yl]carbamic acid 2-methoxy-ethyl ester], the responders at 50 mg/kg under setting [2] came to 0%.

Consider `CCOC(=O)N(n1c(=O)[nH]c2cc(CC)c(-c3ccnn3CC)cc2c1=O)S(C)(=O)=O` [Methanesulfonyl-[7-ethyl-6-(2-ethyl-2H-pyrazol-3-yl)-2,4-dioxo-1,4-dihydro-2H-quinazolin-3-yl]carbamic acid ethyl ester], for which the responders at 50 mg/kg under setting [2] was 0%.

For the compound `CCc1cc2[nH]c(=O)n(N(C(=O)OC)S(C)(=O)=O)c(=O)c2cc1-c1ccnn1CC` [Methanesulfonyl-[7-ethyl-6-(2-ethyl-2H-pyrazol-3-yl)-2,4-dioxo-1,4-dihydro-2H-quinazolin-3-yl]carbamic acid methyl ester], the responders at 50 mg/kg under setting [2] was determined as 0%.

Consider `CCCOC(=O)N(n1c(=O)[nH]c2cc(CC)c(-c3ccnn3CC)cc2c1=O)S(C)(=O)=O` [Methanesulfonyl-[7-ethyl-6-(2-ethyl-2H-pyrazol-3-yl)-2,4-dioxo-1,4-dihydro-2H-quinazolin-3-yl]carbamic acid propyl ester], for which the responders at 50 mg/kg under setting [2] is 0%.

Turning to `CCCCCCOC(=O)N(n1c(=O)[nH]c2cc(CC)c(-c3ccnn3C)cc2c1=O)S(C)(=O)=O` [Methanesulfonyl-[7-ethyl-6-(2-methyl-2H-pyrazol-3-yl)-2,4-dioxo-1,4-dihydro-2H-quinazolin-3-yl]carbamic acid hexyl ester], the responders at 50 mg/kg under setting [2] turned out to be 0%.

In the case of `CCCCCCOC(=O)N(n1c(=O)[nH]c2cc(C(F)(F)F)c([C@H]3CCCO3)cc2c1=O)S(C)(=O)=O` [Methanesulfonyl-[(R)-2,4-Dioxo-6-tetrahydro-furan-2-yl-7-trifluoromethyl-1,4-dihydro-2H-quinazolin-3-yl]carbamic acid hexyl ester], the responders at 50 mg/kg under setting [2] came to 0%.

Consider `CC(C)OC(=O)N(n1c(=O)[nH]c2cc(C(F)(F)F)c([C@H]3CCCO3)cc2c1=O)S(C)(=O)=O` [Methanesulfonyl-[(R)-2,4-Dioxo-6-tetrahydro-furan-2-yl-7-trifluoromethyl-1,4-dihydro-2H-quinazolin-3-yl]carbamic acid isopropyl ester], for which the responders at 50 mg/kg under setting [2] turned out to be 0%.

Turning to `CCCCCOC(=O)N(n1c(=O)[nH]c2cc(C(F)(F)F)c([C@H]3CCCO3)cc2c1=O)S(C)(=O)=O` [Methanesulfonyl-[(R)-2,4-Dioxo-6-tetrahydro-furan-2-yl-7-trifluoromethyl-1,4-dihydro-2H-quinazolin-3-yl]carbamic acid pentyl ester], under setting [2], the responders at 50 mg/kg was determined as 0%.

As to `CCCOC(=O)N(n1c(=O)[nH]c2cc(C(F)(F)F)c([C@H]3CCCO3)cc2c1=O)S(C)(=O)=O` [Methanesulfonyl-[(R)-2,4-Dioxo-6-tetrahydro-furan-2-yl-7-trifluoromethyl-1,4-dihydro-2H-quinazolin-3-yl]carbamic acid propyl ester], the responders at 50 mg/kg under setting [2] was determined as 0%.

Turning to `CCn1nccc1-c1cc2c(=O)n(N(C(C)=O)S(C)(=O)=O)c(=O)[nH]c2cc1C(F)(F)F` [N-Acetyl-N-[6-(2-ethyl-2H-pyrazol-3-yl)-2,4-dioxo-7-trifluoromethyl-1,4-dihydro-2H-quinazolin-3-yl]-methanesulfonamide], the responders at 50 mg/kg under setting [2] is 0%.

For `CCn1nccc1-c1cc2c(=O)n(N(C(C)=O)S(C)(=O)=O)c(=O)[nH]c2cc1C(F)F` [N-Acetyl-N-[7-difluoromethyl-6-(2-ethyl-2H-pyrazol-3-yl)-2,4-dioxo-1,4-dihydro-2H-quinazolin-3-yl]-methanesulfonamide], the responders at 50 mg/kg under setting [2] came out at 0%.

`CCc1cc2[nH]c(=O)n(N(C(C)=O)S(C)(=O)=O)c(=O)c2cc1-c1ccnn1CC` [N-Acetyl-N-[7-ethyl-6-(2-ethyl-2H-pyrazol-3-yl)-2,4-dioxo-1,4-dihydro-2H-quinazolin-3-yl]-methanesulfonamide]: the responders at 50 mg/kg under setting [2] came out at 0%.

The record behind these values is US20130053381A1, “2,4-DIOXO-1,4-DIHYDRO-2H-QUINAZOLIN-3-YL-SULFONAMIDE DERIVATIVES” (NOVARTIS AG, priority 2010, published 2013).
